The text below walks through data of EP4578856A1, “HETEROCYCLIC COMPOUND” (Ubience Inc., priority 2022, dated 2024).

In this experiment the target is ROCK2 protein (Homo sapiens, UniProt O75116). Kind of experiment: Degradation inducing activity of ROCK2 protein in HUVEC cells, Western blotting (Simple Western JESS). The format is cell-based. The arrangement: endogenous in cells; host or cells: HUVEC (ATCC CRL-1730). Conditions: for inhibition at 1 µM / inhibition at 10 µM: HUVEC, 24 h; for ROCK2 protein degradation rate: 24 hours. In a few lines: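 HUVEC cells treated 24 h with compound at 10 µM or 1 µM, then lysed; ROCK2 quantified by capillary Western (Simple Western JESS) using rabbit mAb D1B1, normalized to total loaded protein. Degradation rate (%) calculated relative to DMSO control set at 100%, binned A ≥75%, B 50–75%, C 25–50%, D <25%.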
Sequence of ROCK2 protein (O75116 whole entry): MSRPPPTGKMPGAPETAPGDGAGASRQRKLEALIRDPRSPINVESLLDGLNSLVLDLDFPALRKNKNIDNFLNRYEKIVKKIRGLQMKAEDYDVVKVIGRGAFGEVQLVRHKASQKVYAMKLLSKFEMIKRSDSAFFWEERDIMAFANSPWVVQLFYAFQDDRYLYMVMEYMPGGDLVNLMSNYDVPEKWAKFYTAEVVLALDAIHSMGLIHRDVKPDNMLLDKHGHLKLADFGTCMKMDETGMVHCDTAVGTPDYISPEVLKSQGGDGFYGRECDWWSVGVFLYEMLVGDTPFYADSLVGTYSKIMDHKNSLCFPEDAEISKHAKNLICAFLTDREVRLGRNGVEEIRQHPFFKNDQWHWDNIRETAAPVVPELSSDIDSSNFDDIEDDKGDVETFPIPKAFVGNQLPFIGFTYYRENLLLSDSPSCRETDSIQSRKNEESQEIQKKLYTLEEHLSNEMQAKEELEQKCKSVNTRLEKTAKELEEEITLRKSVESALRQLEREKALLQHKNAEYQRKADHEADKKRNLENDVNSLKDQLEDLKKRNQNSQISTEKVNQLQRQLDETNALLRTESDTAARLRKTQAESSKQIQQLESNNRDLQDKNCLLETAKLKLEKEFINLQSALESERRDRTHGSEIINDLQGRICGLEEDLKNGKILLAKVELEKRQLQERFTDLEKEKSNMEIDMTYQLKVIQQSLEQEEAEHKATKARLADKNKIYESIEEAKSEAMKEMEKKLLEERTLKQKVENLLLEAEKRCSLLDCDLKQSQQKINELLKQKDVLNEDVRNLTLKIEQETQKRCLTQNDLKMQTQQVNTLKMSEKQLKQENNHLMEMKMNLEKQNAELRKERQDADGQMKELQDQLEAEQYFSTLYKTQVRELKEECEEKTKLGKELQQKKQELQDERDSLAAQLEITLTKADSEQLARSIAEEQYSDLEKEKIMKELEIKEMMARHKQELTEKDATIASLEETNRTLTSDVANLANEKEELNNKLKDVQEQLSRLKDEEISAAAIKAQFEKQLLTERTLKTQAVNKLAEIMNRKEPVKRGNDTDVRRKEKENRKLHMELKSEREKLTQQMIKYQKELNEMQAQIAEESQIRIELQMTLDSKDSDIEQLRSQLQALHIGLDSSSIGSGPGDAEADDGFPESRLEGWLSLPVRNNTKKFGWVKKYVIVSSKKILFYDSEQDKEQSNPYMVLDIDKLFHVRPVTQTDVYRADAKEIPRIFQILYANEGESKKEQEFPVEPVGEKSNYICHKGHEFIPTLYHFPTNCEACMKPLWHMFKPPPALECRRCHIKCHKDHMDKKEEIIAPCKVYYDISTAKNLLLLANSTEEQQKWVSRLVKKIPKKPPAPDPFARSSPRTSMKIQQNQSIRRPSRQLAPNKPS
(In general: Immunoblotting shows a protein as a band on a membrane.)

What is called inhibition is the share of the control response that was lost under treatment. A lower inhibition goes with a response near the control.

Take `COC[C@H]1CN[C@H](C)CN1CC(=O)N1CC(C)(C)c2ncc(Cc3cccc(OCCOCCOCCN[C@H](Cc4cccc(F)c4)C(=O)Nc4ccc(-c5ccncc5)cc4)c3)cc21` [Example 51, (R)-3-(3-Fluorophenyl)-2-((2-(2-(2-(3-((1-(2-((2R,5R)-2-(methoxymethyl)-5-methylpiperazin-1-yl)acetyl)-3,3-dimethyl-2,3-dihydro-1H-pyrrolo[3,2-b]pyridin-6-yl)methyl)phenoxy)ethoxy)ethoxy)ethyl)amino)-N-(4-(pyridin-4-yl)phenyl)propenamide]: under “degradation rate at 1 µM”, the inhibition at 1 µM fell in the range of 50 to 75%. The inhibition at 10 µM (degradation rate at 10 µM) was ≥ 75%.

Regarding `C[C@@H]1CN(CC(=O)N2CC(C)(C)c3ncc(Cc4ccc(F)cc4)cc32)[C@@H](CN(C)CCOCCOCCOCCN[C@H](Cc2cccc(F)c2)C(=O)Nc2ccc(-c3ccncc3)cc2)CN1` [Example 10, (R)-15-(3-Fluorobenzyl)-1-((2R,5R)-1-(2-(6-(4-fluorobenzyl)-3,3-dimethyl-2,3-dihydro-1H-pyrrolo[3,2-b]pyridin-1-yl)-2-oxoethyl)-5-methylpiperazin-2-yl)-2-methyl-N-(4-(pyridin-4-yl)phenyl)-5,8,11-trioxa-2,14-diazahexadecan-16-amide], for the setting “degradation rate at 1 µM”, the inhibition at 1 µM was in the range of 25 to 50%. Also, the inhibition at 10 µM (degradation rate at 10 µM) is ≥ 75%.

With `C[C@@H]1CN(CC(=O)N2CC(C)(C)c3ncc(Cc4ccc(F)cc4)cc32)[C@@H](CN(C)CCOCCOCCOCCOCCN[C@H](Cc2cccc(F)c2)C(=O)Nc2ccc(-c3ccncc3)cc2)CN1` [Example 11, (R)-18-(3-Fluorobenzyl)-1-((2R,5R)-1-(2-(6-(4-fluorobenzyl)-3,3-dimethyl-2,3-dihydro-1H-pyrrolo[3,2-b]pyridin-1-yl)-2-oxoethyl)-5-methylpiperazin-2-yl)-2-methyl-N-(4-(pyridin-4-yl)phenyl)-5,8,11,14-tetraoxa-2,17-diazanonadecan-19-amide], the inhibition at 1 µM (degradation rate at 1 µM) lay in the range of 50 to 75%. For the same compound, the inhibition at 10 µM (degradation rate at 10 µM) was ≥ 75%. Regarding `C[C@@H]1CN(CC(=O)N2CC(C)(C)c3ncc(Cc4ccc(F)cc4)cc32)[C@@H](CN(C)CCOCCOCCOCCNC[C@@H](C(=O)Nc2ccc3cnccc3c2)c2ccccc2)CN1` [Example 17, (S)-1-((2R,5R)-1-(2-(6-(4-Fluorobenzyl)-3,3-dimethyl-2,3-dihydro-1H-pyrrolo[3,2-b]pyridin-1-yl)-2-oxoethyl)-5-methylpiperazin-2-yl)-N-(isoquinolin-6-yl)-2-methyl-16-phenyl-5,8,11-trioxa-2,14-diazaheptadecan-17-amide], for the setting “degradation rate at 1 µM”, the inhibition at 1 µM fell in the range of 25 to 50%. Moreover, the inhibition at 10 µM (degradation rate at 10 µM) is ≥ 75%.

Turning to `COC[C@H]1CN[C@H](C)CN1CC(=O)N1CC(C)(C)c2ncc(Cc3ccccc3OCCOCCOCCOCCOCCOCCN[C@H](C)c3ccc(C(=O)Nc4ccncc4)cc3)cc21` [Example 68, 4-((R)-20-(2-((1-(2-((2R,5R)-2-(Methoxymethyl)-5-methylpiperazin-1-yl)acetyl)-3,3-dimethyl-2,3-dihydro-1H-pyrrolo[3,2-b]pyridin-6-yl)methyl)phenoxy)-6,9,12,15,18-pentaoxa-3-azaicosan-2-yl)-N-(pyridin-4-yl)benzamide], the inhibition at 1 µM (degradation rate at 1 µM) was ≥ 75%.

`COC[C@H]1CN[C@H](C)CN1CC(=O)N1CC(C)(C)c2ncc(Cc3ccccc3OCCOCCN[C@H](Cc3cccc(F)c3)C(=O)Nc3ccc(-c4ccncc4)cc3)cc21` [Example 71, (R)-3-(3-Fluorophenyl)-2-((2-(2-(2-((1-(2-((2R,5R)-2-(methoxymethyl)-5-methylpiperazin-1-yl)acetyl)-3,3-dimethyl-2,3-dihydro-1H-pyrrolo[3,2-b]pyridin-6-yl)methyl)phenoxy)ethoxy)ethyl)amino)-N-(4-(pyridin-4-yl)phenyl)propanamide]: for the setting “degradation rate at 1 µM”, the inhibition at 1 µM is 25 to 50%. For the same compound, the inhibition at 10 µM (degradation rate at 10 µM) was < 25%. In the case of `COC[C@H]1CN[C@H](C)CN1CC(=O)N1CC(C)(C)c2ncc(Cc3cccc(OCCOCCOCCOCCNC[C@@H](C(=O)Nc4ccc5cnccc5c4)c4ccccc4)c3)cc21` [Example 59, (S)-N-(Isoquinolin-6-yl)-1-(3-((1-(2-((2R,5R)-2-(methoxymethyl)-5-methylpiperazin-1-yl)acetyl)-3,3-dimethyl-2,3-dihydro-1H-pyrrolo[3,2-b]pyridin-6-yl)methyl)phenoxy)-14-phenyl-3,6,9-trioxa-12-azapentadecan-15-amide], the inhibition at 1 µM (degradation rate at 1 µM) was ≥ 75%. The inhibition at 10 µM (degradation rate at 10 µM) is ≥ 75%. Take `COC[C@H]1CN[C@H](C)CN1CC(=O)N1CC(C)(C)c2ncc(Cc3ccccc3OCCOCCOCCNC[C@@H](C(=O)Nc3ccc4cnccc4c3)c3ccccc3)cc21` [Example 79, (S)-N-(Isoquinolin-6-yl)-3-((2-(2-(2-(2-((1-(2-((2R,5R)-2-(methoxymethyl)-5-methylpiperazin-1-yl)acetyl)-3,3-dimethyl-2,3-dihydro-1H-pyrrolo[3,2-b]pyridin-6-yl)methyl)phenoxy)ethoxy)ethoxy)ethyl)amino)-2-phenylpropanamide]: where the note is “degradation rate at 1 µM”, the inhibition at 1 µM is ≥ 75%. The inhibition at 10 µM (degradation rate at 10 µM) is ≥ 75%. Take `C[C@@H]1CN(CC(=O)N2CC(C)(C)c3ncc(Cc4ccc(F)cc4)cc32)[C@@H](CN(C)CCOCCN[C@H](Cc2cccc(F)c2)C(=O)Nc2ccc(-c3ccncc3)cc2)CN1` [Example 8, (R)-2-((2-(2-((((2R,5R)-1-(2-(6-(4-Fluorobenzyl)-3,3-dimethyl-2,3-dihydro-1H-pyrrolo[3,2-b]pyridin-1-yl)-2-oxoethyl)-5-methylpiperazin-2-yl)methyl) (methyl)amino)ethoxy)ethyl)amino)-3-(3-fluorophenyl)-N-(4-(pyridin-4-yl)phenyl)propanamide]: the inhibition at 1 µM (degradation rate at 1 µM) is 25 to 50%. Besides, the inhibition at 10 µM (degradation rate at 10 µM) was ≥ 75%. Take `COC[C@H]1CN[C@H](C)CN1CC(=O)N1CC(C)(C)c2ncc(Cc3ccccc3OCCOCCOCCOCCOCCOCCOCCOCCN[C@H](Cc3cccc(F)c3)C(=O)Nc3ccc(-c4ccncc4)cc3)cc21` [Example 77, (R)-2-(3-Fluorobenzyl)-26-(2-((1-(2-((2R,5R)-2-(methoxymethyl)-5-methylpiperazin-1-yl)acetyl)-3,3-dimethyl-2,3-dihydro-1H-pyrrolo[3,2-b]pyridin-6-yl)methyl)phenoxy)-N-(4-(pyridin-4-yl)phenyl)-6,9,12,15,18,21,24-heptaoxa-3-azahexacosanamide]: for the setting “degradation rate at 1 µM”, the inhibition at 1 µM was < 25%. Besides, the inhibition at 10 µM (degradation rate at 10 µM) is ≥ 75%. For `COC[C@H]1CN[C@H](C)CN1CC(=O)N1CC(C)(C)c2nc(CN(C)CCOCCOCCNC[C@@H](C(=O)Nc3ccc4cnccc4c3)c3ccccc3)c(Cc3ccc(F)cc3)cc21` [Example 37, (S)-1-(6-(4-Fluorobenzyl)-1-(2-((2R,5R)-2-(methoxymethyl)-5-methylpiperazin-1-yl)acetyl)-3,3-dimethyl-2,3-dihydro-1H-pyrrolo[3,2-b]pyridin-5-yl)-N-(isoquinolin-6-yl)-2-methyl-13-phenyl-5,8-dioxa-2,11-diazatetradecan-14-amide] the same measures were < 25% and ≥ 75%. For `COC[C@H]1CN[C@H](C)CN1CC(=O)N1CC(C)(C)c2nc(CN(C)CCOCCOCCOCCOCCOCCOCCOCCN[C@H](Cc3cccc(F)c3)C(=O)Nc3ccc(-c4ccncc4)cc3)c(Cc3ccc(F)cc3)cc21` [Example 35, (R)-27-(3-Fluorobenzyl)-1-(6-(4-fluorobenzyl)-1-(2-((2R,5R)-2-(methoxymethyl)-5-methylpiperazin-1-yl)acetyl)-3,3-dimethyl-2,3-dihydro-1H-pyrrolo[3,2-b]pyridin-5-yl)-2-methyl-N-(4-(pyridin-4-yl)phenyl)-5,8,11,14,17,20,23-heptaoxa-2,26-diazaoctacosan-28-amide] the same measures were 50 to 75% and ≥ 75%. For `COC[C@H]1CN[C@H](C)CN1CC(=O)N1CC(C)(C)c2nc(CN(C)CCOCCN[C@H](Cc3cccc(F)c3)C(=O)Nc3ccc(-c4ccncc4)cc3)c(Cc3ccc(F)cc3)cc21` [Example 29, (R)-2-((2-(2-(((6-(4-Fluorobenzyl)-1-(2-((2R,5R)-2-(methoxymethyl)-5-methylpiperazin-1-yl)acetyl)-3,3-dimethyl-2,3-dihydro-1H-pyrrolo[3,2-b]pyridin-5-yl)methyl)(methyl)amino)ethoxy)ethyl)amino)-3-(3-fluorophenyl)-N-(4-(pyridin-4-yl)phenyl)propanamide] the same measures were 50 to 75% and ≥ 75%. For `COC[C@H]1CN[C@H](C)CN1CC(=O)N1CC(C)(C)c2ncc(Cc3ccccc3OCCOCCOCCN[C@H](C)c3ccc(C(=O)Nc4ccncc4)cc3)cc21` [Example 65, 4-((R)-1-((2-(2-(2-(2-((1-(2-((2R,5R)-2-(Methoxymethyl)-5-methylpiperazin-1-yl)acetyl)-3,3-dimethyl-2,3-dihydro-1H-pyrrolo[3,2-b]pyridin-6-yl)methyl)phenoxy)ethoxy)ethoxy)ethyl)amino)ethyl)-N-(pyridin-4-yl)benzamide], the “ROCK2 protein degradation rate” value reads like this: (degradation rate at 1 µM) “D (D < 25%)”; (degradation rate at 10 µM) “B (75% > B ≥ 50%)”. Consider `C[C@@H]1CN(CC(=O)N2CC(C)(C)c3ncc(Cc4ccc(F)cc4)cc32)[C@@H](CN(C)CCOCCOCCOCCOCCOCCOCCOCCN[C@H](C)c2ccc(C(=O)Nc3ccncc3)cc2)CN1` [Example 7, 4-((R)-1-((2R,5R)-1-(2-(6-(4-Fluorobenzyl)-3,3-dimethyl-2,3-dihydro-1H-pyrrolo[3,2-b]pyridin-1-yl)-2-oxoethyl)-5-methylpiperazin-2-yl)-2-methyl-5,8,11,14,17,20,23-heptaoxa-2,26-diazaoctacosan-27-yl)-N-(pyridin-4-yl)benzamide], for which the inhibition at 1 µM (degradation rate at 1 µM) lay within 50 to 75%. The inhibition at 10 µM (degradation rate at 10 µM) lay in the range of 50 to 75%.
